Where a name gives a salt, the structure may show the parent alone. Read-outs that look alike come from different tables or passages of the source.
Assays:
Type in all cases: cell-based
HTT mRNA = test: Splicing assay (RT-qPCR) of HTT mRNA alternative junction (AJ) and canonical junction (CJ)
Method in brief: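 A673 (adherent, 24 h pre-plating) or K562 cells treated 24 h at 37 °C with an 11-point 3-fold dilution series, top 10 uM, DMSO ≤0.25%. Lysates analysed by one-step RT-qPCR for HTT canonical (CJ) and alternative-exon (AJ) junctions, normalised to PPIA (A673) or GAPDH/GUSB (K562).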

SMN2 CJ mRNA = test: Gene panel canonical junction qPCR splicing assay, SMN2; details: Table 4, read-out: SMN2 IC50 (decrease in CJ mRNA levels)
Method in brief: (§1)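 A673 or K562 cells treated with compound; canonical-junction mRNA measured by RT-qPCR with junction-spanning primer/probe sets, normalized to GAPDH, GUSB or PPIA and DMSO (2^−ΔΔCt). IC50 for CJ decrease from 4-parameter logistic fit of percentage response.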

Target C CJ mRNA = test: Gene panel canonical junction qPCR splicing assay, Target C; details: Table 4, read-out: Target C IC50 (decrease in CJ mRNA levels)
Method in brief: as §1

HTT CJ mRNA = test: Gene panel canonical junction qPCR splicing assay, HTT; details: Table 4, read-out: HTT IC50 (decrease in CJ mRNA levels)
Method in brief: as §1

[1] = decrease in CJ mRNA, A673 or K562 cells, 24 hours, read-out: HTT CJ IC50
[2] = increase in AJ mRNA, A673 or K562 cells, 24 hours, read-out: HTT AJ AC50

Compound	IC50 (HTT mRNA; [1])	AC50 (HTT mRNA; [2])	IC50 (SMN2 CJ mRNA)	IC50 (Target C CJ mRNA)	IC50 (HTT CJ mRNA)	AC50 (HTT mRNA; 24 h, read-out: HTT AJ AC50 (nM))	IC50 (HTT mRNA; 24 h, read-out: HTT CJ IC50 (nM))
COc1cc2nc(C)sc2cc1-c1ccc2nc(N3CCC(NC(C)(C)C)C3)ccc2n1 (stereo not drawn) [Compound 176, N-tert-butyl-1-[6-(5-methoxy-2-methyl-1,3-benzothiazol-6-yl)-1,5-naphthyridin-2-yl]pyrrolidin-3-amine]	1000 to 10000 nM	1000 to 10000 nM	1000 to 10000 nM	1000 to 10000 nM	1000 to 10000 nM	–	–
COc1cc2nc(C)oc2cc1-c1ccc2nc(N3CCC(NC(C)(C)C)C3)ccc2n1 (stereo not drawn) [Compound 177, N-tert-butyl-1-[6-(5-methoxy-2-methyl-1,3-benzoxazol-6-yl)-1,5-naphthyridin-2-yl]pyrrolidin-3-amine]	1000 to 10000 nM	1000 to 10000 nM	1000 to 10000 nM	1000 to 10000 nM	1000 to 10000 nM	–	–
Cn1cc2cc(-c3ccc4nc(N5CCC6(CCN6)C5)ccc4n3)c(O)cc2n1 (stereo not drawn) [Compound 178, 5-(6-{1,6-diazaspiro[3.4]octan-6-yl}-1,5-naphthyridin-2-yl)-2-methylindazol-6-ol]	100 to 1000 nM	100 to 1000 nM	< 100 nM	1000 to 10000 nM	100 to 1000 nM	–	–
CCN[C@H]1CCN(c2ccc3nc(-c4cc5cn(C)nc5cc4O)ccc3n2)C1 [Compound 179]	< 100 nM	< 100 nM	< 100 nM	100 to 1000 nM	< 100 nM	–	–
CCN[C@@H]1CCN(c2ccc3nc(-c4cc5cn(C)nc5cc4O)ccc3n2)C1 [Compound 180]	< 100 nM	100 to 1000 nM	< 100 nM	100 to 1000 nM	< 100 nM	–	–
Cn1cc2cc(-c3ccc4nc(N5CC[C@H](NCC(F)(F)F)C5)ccc4n3)c(O)cc2n1 [Compound 182, 2-methyl-5-{6-[(3S)-3-[(2,2,2-trifluoroethyl)amino]pyrrolidin-1-yl]-1,5-naphthyridin-2-yl}indazol-6-ol]	1000 to 10000 nM	> 10000 nM	1000 to 10000 nM	> 10000 nM	1000 to 10000 nM	–	–
Cn1cc2cc(-c3ccc4nc(C5CCNCC5)ccc4n3)ccc2n1 [Compound 184, 2-(2-methylindazol-5-yl)-6-(piperidin-4-yl)-1,5-naphthyridine]	1000 to 10000 nM	100 to 1000 nM	< 100 nM	100 to 1000 nM	1000 to 10000 nM	–	–
Cn1cc2cc(-c3ccc4nc(C5CCNCC5)ccc4n3)cc(F)c2n1 [Compound 185, 2-(7-fluoro-2-methylindazol-5-yl)-6-(piperidin-4-yl)-1,5-naphthyridine]	1000 to 10000 nM	1000 to 10000 nM	100 to 1000 nM	1000 to 10000 nM	1000 to 10000 nM	–	–
Cc1cn2nc(-c3ccc4nc(N5CCC(NC(C)(C)C)C5)ccc4n3)cc(C)c2n1 (stereo not drawn) [Compound 186, N-tert-butyl-1-(6-{2,8-dimethylimidazo[1,2-b]pyridazin-6-yl}-1,5-naphthyridin-2-yl)pyrrolidin-3-amine]	–	–	< 100 nM	< 100 nM	< 100 nM	< 100 nM	< 100 nM
Cc1cn2nc(-c3ccc4nc(N5CCC(NC(C)(C)C)C5)ccc4n3)cc2c(C)n1 (stereo not drawn) [Compound 187]	< 100 nM	< 100 nM	< 100 nM	< 100 nM	< 100 nM	–	–
Cn1cc2cc(-c3ccc4nc(N5CC[C@@H](NC6COC6)C5)ccc4n3)c(O)cc2n1 [Compound 188]	100 to 1000 nM	100 to 1000 nM	< 100 nM	1000 to 10000 nM	100 to 1000 nM	–	–
Cc1nc2cc(O)c(-c3ccc4nc(N5CCC(NC(C)(C)C)C5)ccc4n3)cc2s1 (stereo not drawn) [Compound 190, 6-{6-[3-(tert-butylamino)pyrrolidin-1-yl]-1,5-naphthyridin-2-yl}-2-methyl-1,3-benzothiazol-5-ol; trifluoroacetic acid]	> 10000 nM	> 10000 nM	< 100 nM	> 10000 nM	> 10000 nM	–	–
Cc1c(O)c(-c2ccc3nc(N4CCC(NC(C)(C)C)C4)ccc3n2)cc2cn(C)nc12 (stereo not drawn) [Compound 191, 5-{6-[3-(tert-butylamino)pyrrolidin-1-yl]-1,5-naphthyridin-2-yl}-2,7-dimethylindazol-6-ol hydrochloride]	< 100 nM	< 100 nM	> 10000 nM	> 10000 nM	> 10000 nM	–	–
CN1CCCC2(CCN2c2ccc3nc(-c4cc5cn(C)nc5cc4O)ccc3n2)C1 (stereo not drawn) [Compound 192, 2-methyl-5-(6-{6-methyl-1,6-diazaspiro[3.5]nonan-1-yl}-1,5-naphthyridin-2-yl) indazol-6-ol]	> 10000 nM	> 10000 nM	> 10000 nM	> 10000 nM	> 10000 nM	–	–
Cn1cc2cc(-c3ccc4nc(C5CCNCC5)ccc4n3)c(F)cc2n1 [Compound 193, 2-(6-fluoro-2-methylindazol-5-yl)-6-(piperidin-4-yl)-1,5-naphthyridine]	1000 to 10000 nM	1000 to 10000 nM	1000 to 10000 nM	1000 to 10000 nM	1000 to 10000 nM	–	–
Cn1cc2cc(-c3ccc4nc(N5CC[C@H](NCC6CC6)C5)ccc4n3)c(O)cc2n1 [Compound 194]	< 100 nM	< 100 nM	< 100 nM	< 100 nM	< 100 nM	–	–
Cn1cc2cc(-c3ccc4nc(N5CC[C@@H](NCC6CC6)C5)ccc4n3)c(O)cc2n1 [Compound 195]	100 to 1000 nM	< 100 nM	< 100 nM	100 to 1000 nM	100 to 1000 nM	–	–
Cn1cc2cc(-c3ccc4nc(C5CCNCC5)ccc4n3)c(C(F)F)cc2n1 [Compound 196, 2-[6-(difluoromethyl)-2-methylindazol-5-yl]-6-(piperidin-4-yl)-1,5-naphthyridine]	> 10000 nM	> 10000 nM	1000 to 10000 nM	> 10000 nM	> 10000 nM	–	–
Cn1cc2cc(-c3ccc4nc(N5CC[C@H](NC6CC6)C5)ccc4n3)c(O)cc2n1 [Compound 197, 5-{6-[(35)-3-(cyclopropylamino)pyrrolidin-1-yl]-1,5-naphthyridin-2-yl}-2-methylindazol-6-ol]	< 100 nM	< 100 nM	< 100 nM	100 to 1000 nM	< 100 nM	–	–
Cn1cc2cc(-c3ccc4nc(N5CC[C@@H](NC6CC6)C5)ccc4n3)c(O)cc2n1 [Compound 198]	< 100 nM	< 100 nM	< 100 nM	100 to 1000 nM	< 100 nM	–	–
Cn1cc2nc(-c3ccc4nc(C5CCNCC5)ccc4n3)ccc2n1 [Compound 199, 2-{2-methylpyrazolo[4,3-b]pyridin-5-yl}-6-(piperidin-4-yl)-1,5-naphthyridine]	100 to 1000 nM	100 to 1000 nM	100 to 1000 nM	100 to 1000 nM	100 to 1000 nM	–	–
Cn1cc2cc(-c3ccc4nc(C5CCNCC5)ccc4n3)ncc2n1 [Compound 200]	1000 to 10000 nM	1000 to 10000 nM	1000 to 10000 nM	1000 to 10000 nM	1000 to 10000 nM	–	–
Cc1cn2cc(-c3ccc4nc(N5CCC(NC(C)(C)C)C5)ccc4n3)cc(C)c2n1 (stereo not drawn) [Compound 201]	100 to 1000 nM	100 to 1000 nM	< 100 nM	100 to 1000 nM	100 to 1000 nM	–	–
Cn1cc2cc(-c3ccc4nc(N5CCC(NC(C)(C)C)C5)ccc4n3)c(O)c(F)c2n1 (stereo not drawn) [Compound 202]	< 100 nM	< 100 nM	> 10000 nM	< 100 nM	< 100 nM	–	–
